# Assay results published in US11377659B2, “Short hairpin RNA (shRNA734) and use of same to positively select and eliminate genetically modified cells” (THE REGENTS OF THE UNIVERSITY OF CALIFORNIA, priority 2016, dated 2022).
# Columns and labels:
# [1] = humans, estimated; cited from earlier work
# [2] = tested on: Molt4CCR5, PBMC and CD34+ cells; test: MTX mediated negative selection of HPRT knock down cells; type: cell-based, human; conditions: in vitro, 10 μM MTX; % EGFP monitored
# From the text: FIG. 8. Line graphs showing MTX mediated inhibition of Dihydrofolate reductase (DHFR) induced cell death in HPRT knock down cells.
# Negative selection of HPRT knock down cells by MTX is illustrated in FIG. 7, which presents a schematic illustration of MTX mediated inhibition of Dihydrofolate reductase (DHFR) induced cell death in HPRT knock down cells. […] The de novo synthesis occurs through a multi-step process and requires the contribution of four aminoacids, one PRPP, two folates and three ATP to synthesize an inosine monophosphate (IMP) molecule. HPRT catalyzes the salvage synthesis of inosine monophosphate (IMP) and guanosine monophosphate (GMP) from the purine bases hypoxanthine and guanine respectively, utilizing PRPP as a co-substrate. The HPRT defect results in the accumulation of its substrates, hypoxanthine and guanine, which are converted into uric acid by means of xanthine oxidase. Elevated APRT activity may also contribute to purine overproduction.
# Molt4CCR5 (A), PBMC (B) and CD34+ (C) cells were transduced with dual shRNA vector. The transduced cells were cultured with or without 10 μM MTX. Cells were monitored for % EGFP and given fresh media containing MTX every 3 days.
# [3] = tested on: hypoxanthine guanine phosphoribosyltransferase (HPRT); test: HPRT knockdown in vector transduced cells (Western blot); type: cell-based, human; conditions: lentiviral vector transduced cells
# Method: FIG. 6. HPRT knockdown in vector transduced cells. Whole cell lysates were analyzed by Western blot after transduction at the indicated time points.
# (§1) The shRNA vector and control vector transduced cells were cultured with or without 6TG. […] Whole cell lysates were analyzed by Western blot after transduction at the indicated time points.
# [4] = tested on: human T-cell line, CD34+ cells and primary peripheral blood mononuclear cells (PBMC); test: 6TG-mediated positive selection of lentiviral vector-transduced cells in vitro; type: cell-based; conditions: cultured in the presence of 6TG
# Method: FIG. 4. Lentiviral vector delivery of HPRT shRNA results in efficient selections of HPRT knockdown by 6TG. Selection of HPRT knockdown Molt4-CCR5, PBMC and CD34+ cell by 6TG. The shRNA vector and control vector transduced cells were cultured with or without 6TG.
# The potent and non-toxic HPRT shRNA enables 6TG-mediated positive selection of lentiviral vector-transduced human T-cell line, CD34+ cells and primary peripheral blood mononuclear cells (PBMC) in vitro. A lentivirus vector was utilized to deliver sh734 and to stably knockdown HPRT in human T cell lines, primary peripheral blood mononuclear cells and CD34+ hematopoietic stem/progenitor cells.
# Furthermore, the invention provides a combinatorial anti-HIV lentiviral vector expressing the HIV fusion inhibitor C46, and shRNAs for CCR5 and HPRT. […] Methotrexate (MTX) has been used to negatively select the transduced cells.
# as §1
molecule,measurement,setting,value
"Nc1nc2nc[nH]c2c(=S)[nH]1 [6TG, 6-thioguanine]",Absorption after oral administration,[1],30%
"CN(Cc1cnc2nc(N)nc(N)c2n1)c1ccc(C(=O)N[C@@H](CCC(=O)O)C(=O)O)cc1 [MTX, methotrexate]",negative selection of HPRT knock down cells by MTX,[2],negatively selected
"sh734: short hairpin RNA directed to human HPRT, coding sequence SEQ ID NO: 1 (DNA AGGATATGCCCTTGACTATTTGTCCGACATAGTCAAGGGCATATCCT; expressed or natural sequence)",HPRT knockdown,[3],efficient HPRT knockdown
same,positive selection of vector transduced cells by 6TG,[4],positively selected
